Experimental data: patent US7868026B2, “Therapeutic compounds” (Pfizer Inc., priority 2005, dated 2011)
Where two headings read alike, the source gives them in different places.

Assays:
Format in all cases: biochemical
CYP3A4 [1] = biological target: T1, CYP3A4 (Homo sapiens, UniProt P08684); experiment: Determination of IC50 against CYP3A4 by measurement of inhibition of testosterone metabolism (human liver microsomes, 6-β-OH-testosterone by LC-MS/MS); set-up: 0.1 mg/mL human liver microsomes; conditions: read-out: IC50 (Testo.)
Outline: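 Human liver microsomes (0.1 mg/mL) incubated with 25 μM testosterone and 1 mM NADPH in 100 mM potassium phosphate, pH 7.4, for eight minutes. 6-β-OH-testosterone measured by LC-MS/MS in MRM mode against an internal standard and quantified from a metabolite standard curve.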

CYP3A4 [2] = biological target: T1, CYP3A4; experiment: Determination of compound Kiapp against recombinant CYP3A4 enzyme (BFC fluorescent substrate)
Outline: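 Recombinant CYP3A4 (5.5 or 8 nM, with or without b5 depending on source) pre-incubated with inhibitor ≥30 min at room temperature in 100 mM sodium phosphate pH 7.0, 5 mM TCEP, 2% DMF. Reaction started with 200 uM NADPH and 5 uM BFC; initial fluorescence rates over 5 min fitted to Morrison tight-binding (non-partial) or Szedlacsek (partial) equations for Kiapp.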

CYP3A4 [3] = biological target: T1, CYP3A4; experiment: Determination of IC50 against CYP3A4 by measurement of inhibition of midazolam metabolism (human liver microsomes, 1-hydroxymidazolam by LC-MS/MS); set-up: 0.1 mg/mL human liver microsomes; conditions: 2 μM midazolam, 0.1 mg/mL human liver microsomes
Outline: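 Human liver microsomes (0.1 mg/mL) incubated 8 min with 2 μM midazolam and 1 mM NADPH in 100 mM potassium phosphate, pH 7.4. 1-Hydroxymidazolam quantified by LC-MS/MS (MRM) as peak area ratio to internal standard against a metabolite standard curve.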

[4] = Baculo. enzyme preparation, read-out: Kiapp (BFC, Baculo.)
[5] = Super. enzyme preparation, read-out: Kiapp (BFC, Super.)

T1 sequence (P08684 whole entry): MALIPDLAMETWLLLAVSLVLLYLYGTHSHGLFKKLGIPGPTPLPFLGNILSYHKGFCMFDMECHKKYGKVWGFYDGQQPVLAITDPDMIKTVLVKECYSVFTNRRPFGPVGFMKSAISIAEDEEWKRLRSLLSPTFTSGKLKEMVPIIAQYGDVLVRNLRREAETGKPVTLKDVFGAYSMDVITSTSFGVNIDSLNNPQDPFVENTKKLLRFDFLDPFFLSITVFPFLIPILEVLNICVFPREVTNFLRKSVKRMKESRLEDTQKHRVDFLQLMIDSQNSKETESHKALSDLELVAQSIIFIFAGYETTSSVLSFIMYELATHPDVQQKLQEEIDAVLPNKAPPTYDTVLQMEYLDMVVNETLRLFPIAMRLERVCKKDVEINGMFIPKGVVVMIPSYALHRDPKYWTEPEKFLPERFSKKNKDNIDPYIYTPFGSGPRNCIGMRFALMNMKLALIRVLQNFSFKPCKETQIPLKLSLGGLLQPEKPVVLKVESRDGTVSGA

Structure (SMILES)	IC50 (CYP3A4 [1]) [nM]	Ki (CYP3A4 [2]; [4]) [nM]	Ki (CYP3A4 [2]; [5]) [nM]	IC50 (CYP3A4 [3]) [nM]
COc1cncc(NS(=O)(=O)c2ccccc2C(=O)NC(CO)Cc2ccc(Cl)cc2)c1 (stereo not shown) [Example 199, N-[1-(4-chlorobenzyl)-2-hydroxyethyl]-2-{[(5-methoxypyridin-3-yl)amino]sulfonyl}benzamide]	11	12.7	10.5	6
Cc1cncc(NS(=O)(=O)c2ccccc2C(=O)NCC(C)(C)C)c1 [Example 330, N-(2,2-dimethylpropyl)-2-{[(5-methylpyridin-3-yl)amino]sulfonyl}benzamide]	55	204	22.7	60
CC(C)(COCc1ccccc1)NC(=O)c1ccccc1S(=O)(=O)Nc1cccnc1 [Example 34, N-[2-(benzyloxy)-1,1-dimethylethyl]-2-[(pyridin-3-ylamino)sulfonyl]benzamide]	> 750	> 1000		> 750
Cc1ccccc1CNC(=O)c1ccccc1S(=O)(=O)Nc1cccnc1 [Example 74, N-(2-methylbenzyl)-2-[(pyridin-3-ylamino)sulfonyl]benzamide]	< 3	174	4.8	23
CCOc1cncc(NS(=O)(=O)c2ccccc2C(=O)N2CCCC(C)(C)C2)c1 [Example 298, 2-[(3,3-dimethylpiperidin-1-yl)carbonyl]-N-(5-ethoxypyridin-3-yl)benzenesulfonamide]	135	58.5	15.6	31
COc1cncc(NS(=O)(=O)c2ccc(OC3CCNCC3)cc2C(=O)NCc2ccc(F)cc2)c1 [Example 264, N-(4-fluorobenzyl)-2-{[(5-methoxypyridin-3-yl)amino]sulfonyl}-5-(piperidin-4-yloxy)benzamide]	58	34.7	9.88	26
COc1cncc(NS(=O)(=O)c2ccccc2C(=O)NCCN2CCCCC2)c1 [Example 385, 2-{[(5-methoxypyridin-3-yl)amino]sulfonyl}N-(2-piperidin-1-ylethyl)benzamide]	> 750	> 1000	216	> 750
CCOc1cncc(NS(=O)(=O)c2ccccc2C(=O)N(C)Cc2ccc(F)c(F)c2)c1 [Example 289, N-(3,4-difluorobenzyl)-2-{[(5-ethoxypyridin-3-yl)amino]sulfonyl}-N-methylbenzamide]	27	5.9	4.97	15
O=C(NC1(CO)CCCC1)c1ccccc1S(=O)(=O)Nc1cccnc1 [Example 23, N-[1-(hydroxymethyl)cyclo-pentyl]-2-[(pyridin-3-ylamino)sulfonyl]benzamide]	325	> 1000	280	103
CCCN(CC1CC1)C(=O)c1ccccc1S(=O)(=O)Nc1cncc(OC)c1 [Example 390, N-(cyclopropylmethyl)-2-{[(5-methoxypyridin-3-yl)amino]sulfonyl}-N-propylbenzamide]	70	84.9	1.78	18
COc1cncc(NS(=O)(=O)c2ccccc2C(=O)NC(C)C(C)C)c1 (stereo not shown) [Example 313, N-(1,2-dimethylpropyl)-2-{[(5-methoxypyridin-3-yl)amino]sulfonyl}benzamide]	55	197	48.7	19
COc1cncc(NS(=O)(=O)c2ccccc2C(=O)NCc2cccc(Cl)c2Cl)c1 [Example 185, N-(2,3-dichlorobenzyl)-2-{[(5-methoxypyridin-3-yl)amino]sulfonyl}benzamide]	10	17.1	2.8	11
COc1cncc(NS(=O)(=O)c2ccccc2C(=O)N(C)Cc2ccccc2F)c1 [Example 198, N-(2-fluorobenzyl)-2-{[(5-methoxypyridin-3-yl)amino]sulfonyl}-N-methylbenzamide]	10	41.7	16.6	< 3
COc1cncc(NS(=O)(=O)c2ccccc2C(=O)NC(C)(C)C)c1 [Example 374, N-(tert-butyl)-2-{[(5-methoxypyridin-3-yl)amino]sulfonyl}benzamide]	79	483	74.5	29
CC(C)(CN1CCOCC1)NC(=O)c1ccccc1S(=O)(=O)Nc1cccnc1 [Example 33, N-(1,1-dimethyl-2-morpholin-4-ylethyl)-2-[(pyridin-3-ylamino)sulfonyl]benzamide]	473	> 1000		111
COc1cncc(NS(=O)(=O)c2ccccc2C(=O)NCCc2ccccc2Cl)c1 [Example 240, N-[2-(2-chlorophenyl)ethyl]-2-{[(5-methoxypyridin-3-yl)amino]sulfonyl}benzamide]	9	22	3.2	4
Cc1cncc(NS(=O)(=O)c2ccccc2C(=O)NCCc2ccccc2F)c1 [Example 227, N-[2-(2-fluorophenyl)ethyl]-2-{[(5-methylpyridin-3-yl)amino]sulfonyl}benzamide]	11	86.8	8.6	5
Cc1ccncc1NS(=O)(=O)c1ccccc1C(=O)N(C)Cc1ccc(F)c(F)c1 [Example 172, N-(3,4-difluorobenzyl)-N-methyl-2-{[(4-methylpyridin-3-yl)amino]sulfonyl}benzamide]	34	173	21.7	44
CCCCN(C)C(=O)c1ccccc1S(=O)(=O)Nc1cccnc1 [Example 376, N-butyl-N-methyl-2-[(pyridin-3-ylamino)sulfonyl]benzamide]	43	117	73	27
CCOCCNC(=O)c1ccccc1S(=O)(=O)Nc1cnccc1OC [Example 223, N-(2-ethoxyethyl)-2-{[(4-methoxypyridin-3-yl)amino]sulfonyl}benzamide]	745	> 1000	326	260
Cc1cncc(NS(=O)(=O)c2ccccc2C(=O)NCCc2ccccc2OC(F)(F)F)c1 [Example 225, 2-{[(5-methylpyridin-3-yl)amino]sulfonyl}-N-{2-[2-(trifluoromethoxy)phenyl]ethyl}benzamide]	9	15.7	1.7	7
Cc1cncc(NS(=O)(=O)c2ccccc2C(=O)N2CCC(C)CC2)c1 [Example 363, 2-[(4-methylpiperidin-1-yl)carbonyl]-N-(5-methylpyridin-3-yl)benzenesulfonamide]	76	169	36.4	37
COc1cncc(NS(=O)(=O)c2ccccc2C(=O)NCc2ccc(S(C)(=O)=O)cc2)c1 [Example 233, 2-{[(5-methoxypyridin-3-yl)amino]sulfonyl}-N-[4-(methylsulfonyl)benzyl]benzamide]	195	> 1000	182	67
Cc1cncc(NS(=O)(=O)c2ccccc2C(=O)NCc2ccc(F)c(Cl)c2)c1 [Example 158, N-(3-chloro-4-fluorobenzyl)-2-{[(5-methylpyridin-3-yl)amino]sulfonyl}benzamide]	10	19.7	0.9	6
CC(C)(C)OC(=O)N1CCC2(CC1)CN(C(=O)c1ccccc1S(=O)(=O)Nc1cccnc1)C2 [Example 11, tert-butyl 2-{2-[(pyridin-3-ylamino)sulfonyl]benzoyl}-2,7-diazaspiro[3.5]nonane-7-carboxylate]	> 750	> 1000	563	> 750
CCCCCN(C)C(=O)c1ccccc1S(=O)(=O)Nc1cnccc1OCC [Example 272, 2-{[(4-ethoxypyridin-3-yl)amino]sulfonyl}-N-methyl-N-pentylbenzamide]	19	67.3	5.68	12
CN(Cc1ccc(F)c(F)c1)C(=O)c1ccccc1S(=O)(=O)Nc1cncc(F)c1 [Example 163, N-(3,4-difluorobenzyl)-2-{[(5-fluoropyridin-3-yl)amino]sulfonyl}-N-methylbenzamide]	82	263	58	49
COc1cncc(NS(=O)(=O)c2ccccc2C(=O)NCCC2CCCC2)c1 [Example 209, N-(2-cyclopentylethyl)-2-{[(5-methoxypyridin-3-yl)amino]sulfonyl}benzamide]	5	18.2	6.1	4
CCCCN(C)C(=O)c1ccccc1S(=O)(=O)Nc1cnccc1C [Example 230, N-butyl-N-methyl-2-{[(4-methylpyridin-3-yl)amino]sulfonyl}benzamide]	87	373	78.4	42
Cc1cncc(NS(=O)(=O)c2ccccc2C(=O)NC(C)C2CC2)c1 (stereo not shown) [Example 315, N-(1-cyclopropylethyl)-2-{[(5-methylpyridin-3-yl)amino]sulfonyl}benzamide]	43	250	42.2	22
